Source: US8609654B1, “Compounds for enzyme inhibition” (Onyx Therapeutics, Inc., priority 2006, dated 2013)

Columns and labels:
[1] = test system: chymotryptic-like activity of isolated 20S constitutive proteasome vs immunoproteasome; assay: Enzyme kinetic assay with isolated 20S proteasome preps, EC50 ratio of CT-L activity (20S ratio); type: biochemical; details: constitutive proteasome to immunoproteasome, >1 = prefers immunoproteasome
From the text: Enzyme kinetic assays such as those disclosed in U.S. application Ser. No. 09/569,748, Example 2 and Stein et al., Biochem. (1996), 35, 3899-3908 use isolated 20S proteasome preps with greater than 90% constitutive proteasome subunits or immunoproteasome subunits. The inhibitory preference of the molecule is then based on the EC50 ratio of the chymotryptic-like activity of the constitutive proteasome to that of the immunoproteasome (20S ratio).

[2] = molecular target: T1, 26S proteasome CT-L activity in lysate of HT29 (constitutive) vs Sultan/Thp1 (immunoproteasome) cells (Homo sapiens, UniProt P28062+P28074); assay: CT-L EC50 with 26S proteasome in cell lysate (Lysate ratio); type: biochemical; details: HT29 lysate to Sultan/Thp1 lysate, >1 = prefers immunoproteasome
T1 construct: using 26S proteasome in the context of a cell lysate; endogenous in cells; host or cells: HT29 lysate (constitutive); Sultan or THP1 lysate (immunoproteasome)
T1 sequence (P28074 60-263): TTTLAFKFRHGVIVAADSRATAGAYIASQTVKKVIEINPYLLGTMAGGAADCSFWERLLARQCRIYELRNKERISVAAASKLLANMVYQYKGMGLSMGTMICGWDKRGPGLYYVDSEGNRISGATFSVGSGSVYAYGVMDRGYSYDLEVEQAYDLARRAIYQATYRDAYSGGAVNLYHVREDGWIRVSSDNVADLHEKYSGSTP
T1 sequence (P28062 73-276): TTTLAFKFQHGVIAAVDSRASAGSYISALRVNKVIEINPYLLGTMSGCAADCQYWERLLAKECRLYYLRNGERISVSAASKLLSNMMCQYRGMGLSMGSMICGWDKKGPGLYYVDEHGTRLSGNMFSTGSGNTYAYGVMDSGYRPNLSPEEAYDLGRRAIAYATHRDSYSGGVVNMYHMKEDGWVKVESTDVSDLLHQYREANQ
Description: Alternatively, the CT-L EC50 of a compound can be determined using 26S proteasome in the context of a cell lysate. Compound is added to lysate generated from cells that either predominantly express constitutive proteasome (e.g., HT29) or immunoproteasome (e.g., THP1). Again, the inhibitory preference is then based on the EC50 ratio (Lysate ratio).

[3] = molecular target: T2, 20S proteasome subunit β5 vs immunoproteasome subunit LMP7 in RPMI-8226 cells (Homo sapiens, UniProt P28062+P28074); assay: ELISA-based active site assay in RPMI-8226 cells (ELISA ratio); type: cell-based; details: for Elisa ratio (beta5:LMP7): EC50 ratio with β5 antibody to LMP7 antibody, RPMI-8226 cells, >1 = prefers immunoproteasome
T2 construct: Cells expressing approximately equivalent amounts of immuno- and constitutive proteasome (e.g., RPMI-8226) are treated with test compound; endogenous in cells; host or cells: RPMI-8226 multiple myeloma cells
T2 sequence (P28074 60-263): T1 sequence (P28074 60-263)
T2 sequence (P28062 73-276): T1 sequence (P28062 73-276)
Description: Lastly, a more cell-based approach can be utilized. Cells expressing approximately equivalent amounts of immuno- and constitutive proteasome (e.g., RPMI-8226) are treated with test compound, followed by the method for determining the activity of a proteasome inhibitor as described in application Ser. No. 11/254,541. The ratio of the EC50 generated in the ELISA-based assay using β5 antibody and LMP7 antibodies (ELISA ratio) provides the basis for determining the inhibitory preference of the test compound. […] In all three assays, a ratio of less than one denotes the molecule inhibits the CT-L activity of the constitutive proteasome better than that of the immunoproteasome. Ratios greater than one signifies the molecule inhibits chymotrypsin-like activity of the immunoproteasome better than that of the constitutive proteasome.
A suitable ELISA assay may be found in U.S. patent application Ser. No. 11/254,541, incorporated herein in its entirety. Briefly, RPMI-8226 cells were treated with 0.1 nM to 1 μM of proteasome Inhibitor B. The samples were then washed with phosphate-buffered saline (PBS) and lysed in hypotonic buffer (20 mM Tris pH 8, 5 mM EDTA) (Tris-HCl and EDTA are available from Teknova, Inc., Hollister, Calif.). Cellular debris was removed by centrifugation at 14,000 rpm in a microfuge (4° C.) for 2 min. The supernatant was transferred to a fresh tube, snap frozen in liquid nitrogen and stored at −80° C. After thawing on ice, the samples (30 μl for assays run in triplicate) were treated with 500 nM of Inhibitor A for 1 hr at room temperature. Following treatment with Inhibitor A, the lysate was denatured by addition of seven volumes of 1% SDS (210 μl) (available from Bio-Rad, Hercules, Calif.) and heating at 99° C. with vigorous shaking for 5 min. The sample was allowed to cool and two volumes (60 μl) of 10% Triton X-100 (available from Bio-Rad, Hercules, Calif.) was added.
Streptavidin sepharose beads (6.5 μl/well) (available from Amersham Biosciences, Piscataway, N.J.), were washed three times with 1 ml PBS (available from Mediatech, Inc., Herndon, Va.) in a microcentrifuge tube. The beads were resuspended in ELISA wash/block buffer (PBS+0.1% Tween 20+1% bovine serum albumin; 20 μl/well) and transferred to the wells of a 96 well filter plate (BSA is available from Sigma, St. Louis, Mo.; Tween is available from Calbiochem, San Diego, Calif.). Denatured whole blood or PBMC lysates that were treated with Inhibitor 3 were added to the filter plate wells containing the streptavidin sepharose beads (each sample assayed in triplicate) and incubated for 1 hr at room temperature with shaking (MultiScreen-DV Opaque Plates with low protein binding durapore membrane; available from Millipore, Billerica, Mass.). The unbound material was removed by gentle filtration and the beads were washed six times with ELISA wash/block buffer (200 μl each).
Primary antibody to human 20S proteasome subunit (35 (rabbit polyclonal antibody; available from Biomol, Plymouth Meeting, Pa.) or human 20S immunoproteasome subunit LMP7 (rabbit polyclonal antibody; available from Affinity BioReagents, Golden, Colo.) was diluted 1:1000 in ELISA wash/block buffer, added to the beads (100 μl/well), and incubated for 1 hr at room temperature on an orbital shaker. The beads were washed six times with ELISA wash/block buffer with gentle filtration. Secondary antibody treatment (1:5000) and washing are as described for primary antibody (goat anti-rabbit antibody-HRP conjugate; available from Biosource, Camarillo, Calif.). The beads were then resuspended in 100 μl chemiluminescent detection reagent (Super Signal Pico Chemiluminescent Substrate™; available from Pierce, Rockford, Ill.) and luminescence was read on a Tecan plate reader. […]

## CC1(C(=O)[C@H](Cc2ccccc2)NC(=O)[C@H](Cc2c[nH]c3ccccc23)NC(=O)[C@H](CC(N)=O)NC(=O)OCc2ccccc2)CO1 (some centres unmarked)
[1]
  20 S ratio (const:immuno): >1.0
[2]
  Lysate ratio (HT29:Sultan/Thp1): >5.0
[3]
  Elisa ratio (beta5:LMP7): >1.0

## CC(C)C[C@H](NC(=O)[C@H](Cc1ccccc1)NC(=O)C(C)NC(=O)OCc1ccccc1)C(=O)C1(C)CO1 (some centres unmarked)
[1]
  20 S ratio (const:immuno): <0.5
[2]
  Lysate ratio (HT29:Sultan/Thp1): <0.5
[3]
  Elisa ratio (beta5:LMP7): <1.0

## CC1(C(=O)[C@H](Cc2ccccc2)NC(=O)[C@H](Cc2c[nH]c3ccccc23)NC(=O)[C@H](CCC(N)=O)NC(=O)OCc2ccccc2)CO1 (some centres unmarked)
[1]
  20 S ratio (const:immuno): >1.0
[2]
  Lysate ratio (HT29:Sultan/Thp1): >3.0
[3]
  Elisa ratio (beta5:LMP7): >1.0

## C[C@H](NC(=O)OCc1ccccc1)C(=O)N[C@@H](Cc1ccc(C(C)(C)C)cc1)C(=O)N[C@@H](Cc1ccccc1)C(=O)C1(C)CO1 (some centres unmarked)
[1]
  20 S ratio (const:immuno): >2.0
[2]
  Lysate ratio (HT29:Sultan/Thp1): >2.0
[3]
  Elisa ratio (beta5:LMP7): >3.0

## CC(NC(=O)OCc1ccccc1)C(=O)N[C@@H](Cc1csc2ccccc12)C(=O)N[C@@H](Cc1ccccc1)C(=O)C1(C)CO1 (some centres unmarked)
[1]
  20 S ratio (const:immuno): >1.0
[2]
  Lysate ratio (HT29:Sultan/Thp1): >1.0
[3]
  Elisa ratio (beta5:LMP7): >3.0

## COc1ccc(NC(=S)N[C@@H](CC(C)C)C(=O)N[C@@H](Cc2ccccc2)C(=O)N[C@@H](CC(C)C)C(=O)C2(C)CO2)cc1 (some centres unmarked)
[2]
  Lysate ratio (HT29:Sultan/Thp1): <0.5

## CC(NC(=O)OCc1ccccc1)C(=O)N[C@@H](Cc1ccccc1)C(=O)N[C@@H](C)C(=O)C1(C)CO1 (some centres unmarked)
[1]
  20 S ratio (const:immuno): <0.5
[2]
  Lysate ratio (HT29:Sultan/Thp1): <0.5
[3]
  Elisa ratio (beta5:LMP7): <0.5

## CC(C)C[C@H](NC(=O)CN1CCOCC1)C(=O)N[C@@H](Cc1ccccc1)C(=O)N[C@@H](CC(C)C)C(=O)C1(C)CO1 (some centres unmarked)
[1]
  20 S ratio (const:immuno): <0.5
[2]
  Lysate ratio (HT29:Sultan/Thp1): <0.5
[3]
  Elisa ratio (beta5:LMP7): <0.5

## Cc1ccc(CCC(=O)N[C@@H](CC(C)C)C(=O)N[C@@H](Cc2ccccc2)C(=O)N[C@@H](CC(C)C)C(=O)C2(C)CO2)cc1 (some centres unmarked)
[2]
  Lysate ratio (HT29:Sultan/Thp1): <0.5

## CC(NC(=O)OCc1ccccc1)C(=O)N[C@@H](Cc1cccs1)C(=O)N[C@@H](Cc1ccccc1)C(=O)C1(C)CO1 (some centres unmarked)
[1]
  20 S ratio (const:immuno): >2.0
[2]
  Lysate ratio (HT29:Sultan/Thp1): >2.0
[3]
  Elisa ratio (beta5:LMP7): >3.0

## CC1(C(=O)[C@H](Cc2ccccc2)NC(=O)[C@H](Cc2ccccc2)NC(=O)[C@@H](Cc2ccccc2)NC(=O)OCc2ccccc2)CO1 (some centres unmarked)
[1]
  20 S ratio (const:immuno): >5.0
[2]
  Lysate ratio (HT29:Sultan/Thp1): >2.0
[3]
  Elisa ratio (beta5:LMP7): >3.0

## COc1ccc(C[C@H](NC(=O)C(C)NC(=O)OCc2ccccc2)C(=O)N[C@@H](Cc2ccccc2)C(=O)C2(C)CO2)cc1 (some centres unmarked) [drawing 86]
[1]
  20 S ratio (const:immuno): >2.0
[2]
  Lysate ratio (HT29:Sultan/Thp1): >2.0
[3]
  Elisa ratio (beta5:LMP7): >5.0

## C[C@@H](NC(=O)OCc1ccccc1)C(=O)N[C@@H](Cc1c[nH]c2ccccc12)C(=O)N[C@@H](Cc1ccccc1)C(=O)C1(C)CO1 (some centres unmarked)
[1]
  20 S ratio (const:immuno): >5.0
[2]
  Lysate ratio (HT29:Sultan/Thp1): >5.0
[3]
  Elisa ratio (beta5:LMP7): >5.0

## COc1ccc(C[C@H](NC(=O)C(C)NC(=O)OCc2ccccc2)C(=O)N[C@@H](Cc2ccccc2)C(=O)C2(C)CO2)cc1 (some centres unmarked) [drawing 66]
[1]
  20 S ratio (const:immuno): >5.0
[2]
  Lysate ratio (HT29:Sultan/Thp1): >3.0
[3]
  Elisa ratio (beta5:LMP7): >5.0

## CC(C)C[C@H](NC(=O)OCc1ccccc1)C(=O)N[C@@H](Cc1ccccc1)C(=O)N[C@@H](CC(C)C)C(=O)C1(C)CO1 (some centres unmarked)
[1]
  20 S ratio (const:immuno): <0.5
[2]
  Lysate ratio (HT29:Sultan/Thp1): <0.5
[3]
  Elisa ratio (beta5:LMP7): <0.5

## CC1(C(=O)[C@H](Cc2ccccc2)NC(=O)[C@H](Cc2ccccc2)NC(=O)CNC(=O)OCc2ccccc2)CO1 (some centres unmarked)
[1]
  20 S ratio (const:immuno): >3.0
[2]
  Lysate ratio (HT29:Sultan/Thp1): >5.0
[3]
  Elisa ratio (beta5:LMP7): >2.0

## CC(NC(=O)OCc1ccccc1)C(=O)N[C@@H](Cc1ccccc1)C(=O)N[C@H](C(=O)C1(C)CO1)c1ccccc1 (some centres unmarked)
[1]
  20 S ratio (const:immuno): >1.0
[2]
  Lysate ratio (HT29:Sultan/Thp1): >5.0
[3]
  Elisa ratio (beta5:LMP7): >1.0

## CC[C@@H](C)C(NC(=O)[C@H](Cc1ccccc1)NC(=O)C(C)NC(=O)OCc1ccccc1)C(=O)C1(C)CO1 (some centres unmarked)
[3]
  Elisa ratio (beta5:LMP7): <1.0

## CC(C)CC(NC(=O)OCc1ccccc1)C(=O)N[C@@H](CC(C)C)C(=O)N[C@@H](CC(C)C)C(=O)C1(C)CO1 (some centres unmarked)
[1]
  20 S ratio (const:immuno): <0.5
[2]
  Lysate ratio (HT29:Sultan/Thp1): <0.5
[3]
  Elisa ratio (beta5:LMP7): <0.5

## CC(C)C[C@@H](NC(=O)OCc1ccccc1)C(=O)N[C@@H](Cc1c[nH]c2ccccc12)C(=O)N[C@@H](Cc1ccccc1)C(=O)C1(C)CO1 (some centres unmarked)
[1]
  20 S ratio (const:immuno): >5.0
[2]
  Lysate ratio (HT29:Sultan/Thp1): >5.0
[3]
  Elisa ratio (beta5:LMP7): >5.0

## C[C@H](NC(=O)OCc1ccccc1)C(=O)N[C@@H](Cc1cn(C)c2ccccc12)C(=O)N[C@@H](Cc1ccccc1)C(=O)C1(C)CO1 (some centres unmarked)
[1]
  20 S ratio (const:immuno): >1.0
[2]
  Lysate ratio (HT29:Sultan/Thp1): >1.0
[3]
  Elisa ratio (beta5:LMP7): >3.0

## CC[C@@H](NC(=O)OCc1ccccc1)C(=O)N[C@@H](Cc1ccccc1)C(=O)N[C@@H](Cc1ccccc1)C(=O)C1(C)CO1 (some centres unmarked)
[1]
  20 S ratio (const:immuno): >5.0
[2]
  Lysate ratio (HT29:Sultan/Thp1): >5.0
[3]
  Elisa ratio (beta5:LMP7): >3.0

## CC(C)C[C@H](NC(=O)[C@H](Cc1c[nH]c2ccccc12)NC(=O)[C@H](C)NC(=O)OCc1ccccc1)C(=O)C1(C)CO1 (some centres unmarked)
[1]
  20 S ratio (const:immuno): <0.5

## CC(C)CC(NC(=O)Nc1ccccc1)C(=O)N[C@@H](Cc1ccccc1)C(=O)N[C@@H](CC(C)C)C(=O)C1(C)CO1 (some centres unmarked)
[2]
  Lysate ratio (HT29:Sultan/Thp1): <0.5

## COc1ccc(NC(=O)NC(CC(C)C)C(=O)N[C@@H](Cc2ccccc2)C(=O)N[C@@H](CC(C)C)C(=O)C2(C)CO2)cc1 (some centres unmarked)
[2]
  Lysate ratio (HT29:Sultan/Thp1): <0.5

## C[C@H](NC(=O)OCc1ccccc1)C(=O)N[C@@H](Cc1c[nH]c2ccccc12)C(=O)N[C@@H](C)C(=O)C1(C)CO1 (some centres unmarked)
[1]
  20 S ratio (const:immuno): <0.5

## CC[C@@H](NC(=O)OCc1ccccc1)C(=O)N[C@@H](Cc1c[nH]c2ccccc12)C(=O)N[C@@H](Cc1ccccc1)C(=O)C1(C)CO1 (some centres unmarked) [inhibitor (B)]
[3]; RPMI-8226 cells treated with 0.1 nM to 1 μM
  ELISA ratio (EC50 β5 antibody : LMP7 antibody): greater than 20
